According to patent US20250042916A1 (ACONCAGUA BIO, INC., priority 2023, published 2025):

The molecules below were run against human calcitonin receptor (CTR) and RAMP3 (AMY3) in COS-7 cells (Homo sapiens, UniProt O60896+P30988) (assay: Amylin Receptor cAMP Assay I). Details: values marked *: Amylin Receptor cAMP Assay I; COS-7/AMY3 cells; read-out: Amylin Receptor cAMP Stimulation Activity: EC50.
Format: cell-based
Excerpt: Amylin Receptor cAMP Assay I
AMYRs are heterodimers of the class B calcitonin (CT) G-protein-coupled receptor (CTR) and receptor activity-modifying proteins (RAMPs). All three RAMPs can interact with the CTR and form AMY1, AMY2, AMY3 with RAMP1, RAMP2 and RAMP3, respectively. Like other class B1 GPCRs, the CT receptor family is canonically coupled to Gs-mediated cAMP production, and measurement of cAMP accumulation has been the primary assay used to determine peptide selectivity and potency.
To optimize functional activity directed toward Gas coupling, COS-7 cells were stably transfected with human calcitonin receptor (CTR) and RAMP3, simultaneously. 100× concentration of compound working solutions were prepared (Agilent Technologies Bravo) with 4-fold serial dilution in 384-well Echo LDV plate (Labcyte, Cat #LP-0200). 100 nL/well 100× concentration of compound working solutions were moved to 384-well white low volume plate (Greiner, Cat #784075) using Labcyte ECHO550. 1×10^5 cells/mL COS-7/CTR or COS-7/AMY3 (HD Biosciences) cell suspensions prepared with assay buffer [DPBS containing 0.5 mM IBMX (Sigma, Cat #15879) and 0.1% BSA (GENVIEW, Cat #FA016-100 g)], 10 μL cell suspensions were added to each well of previous generated assay plate which already contains 100 nL compound at 100× concentration using ThermoFisher Multidrop Combi (1000 cells/well). Seal the plate and incubate at 37° C. with 5% CO2 for 30 min.
After incubation, the cAMP assay signal was generated using cAMP Hi-range Kit (Cisbio). 5 μL cAMP-d2 working solution was added to each well, followed by 5 μL Anti-cAMP antibody-cryptate working solution which was added to each well using ThermoFisher Multidrop Combi. The samples were then incubated at room temperature for 1 hour protected from light. the fluorescence was read at 665 and 615 nm with Reader PerkinElmer EnVision.

human calcitonin receptor (CTR) and RAMP3 (AMY3) in COS-7 cells, sequence (P30988 25-474): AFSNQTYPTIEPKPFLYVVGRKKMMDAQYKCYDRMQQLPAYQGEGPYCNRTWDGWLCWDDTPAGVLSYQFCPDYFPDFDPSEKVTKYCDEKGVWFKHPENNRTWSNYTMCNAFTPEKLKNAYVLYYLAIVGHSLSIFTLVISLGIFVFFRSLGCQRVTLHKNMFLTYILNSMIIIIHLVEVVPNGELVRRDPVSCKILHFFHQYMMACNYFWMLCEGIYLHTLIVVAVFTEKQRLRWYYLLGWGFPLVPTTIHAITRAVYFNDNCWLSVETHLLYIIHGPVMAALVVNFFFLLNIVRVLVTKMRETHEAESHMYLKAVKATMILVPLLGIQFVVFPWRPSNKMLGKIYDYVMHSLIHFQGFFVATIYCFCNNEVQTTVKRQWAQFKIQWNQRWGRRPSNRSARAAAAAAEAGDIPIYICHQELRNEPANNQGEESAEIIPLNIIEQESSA
human calcitonin receptor (CTR) and RAMP3 (AMY3) in COS-7 cells, sequence (O60896 24-148): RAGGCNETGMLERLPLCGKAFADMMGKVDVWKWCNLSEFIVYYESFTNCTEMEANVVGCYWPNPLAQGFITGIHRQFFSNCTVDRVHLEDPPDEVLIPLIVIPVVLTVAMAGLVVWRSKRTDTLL

| SMILES | EC50 [nM] |
| --- | --- |
| Cc1nnc(-c2c(CCc3cnn(C)c3)nc(CC(C)C)c(C(N)=O)c2-c2ccc(C(=O)NCc3ccc(F)c(F)c3)s2)o1 [Compound 184, 4-(5-((3,4-difluorobenzyl)carbamoyl)thiophen-2-yl)-2-isobutyl-5-(5-methyl-1,3,4-oxadiazol-2-yl)-6-(2-(1-methyl-1H-pyrazol-4-yl)ethyl)nicotinamide] | 1070 |
| Cc1nnc(-c2c(CC3CC3(F)F)nc(CC(C)C)c(C(N)=O)c2-c2ccc(C(=O)NCc3ccc(F)c(F)c3)s2)o1 (stereo not shown) [Compound 192, 4-(5-((3,4-difluorobenzyl)carbamoyl)thiophen-2-yl)-6-((2,2-difluorocyclopropyl)methyl)-2-isobutyl-5-(5-methyl-1,3,4-oxadiazol-2-yl)nicotinamide] | > 1000 |
| Cc1nnc(-c2c(CC(C)c3ccc(F)cc3)nc(CC(C)C)c(C(N)=O)c2-c2ccc(C(=O)N[C@@H]3CCc4ncccc43)s2)o1 (stereo partly drawn) [Compound 191, 4-(5-(((R)-6,7-dihydro-5H-cyclopenta[b]pyridin-5-yl)carbamoyl)thiophen-2-yl)-6-(2-(4-fluorophenyl)propyl)-2-isobutyl-5-(5-methyl-1,3,4-oxadiazol-2-yl)nicotinamide] | 1080 |
| Cc1nc(-c2c(CCc3ccc(F)cc3)nc(CC(C)C)c(C(N)=O)c2-c2ccc(C(=O)NCc3ccc(F)c(F)c3)s2)no1 [Compound 154, N-(3,4-difluorophenyl)methyl-5-{5-carbamoyl-2-[2-(p-fluorophenyl)ethyl]-6-isobutyl-3-(5-methyl-1,2,4-oxadiazol-3-yl)-4-pyridyl}-2-thenamide] | 68.7 |
| Cc1ccc(CCc2nc(CC(C)C)c(C(N)=O)c(-c3ccc(C(=O)N[C@@H]4CCc5ncccc54)s3)c2-c2nnc(C)o2)nc1 [Compound 195, (R)-4-(5-((6,7-dihydro-5H-cyclopenta[b]pyridin-5-yl)carbamoyl)thiophen-2-yl)-2-isobutyl-5-(5-methyl-1,3,4-oxadiazol-2-yl)-6-(2-(5-methylpyridin-2-yl)ethyl)nicotinamide] | 39900 |
| Cc1nnc(-c2c(CCN3CCCCC3)nc(CC(C)C)c(C(N)=O)c2-c2ccc(C(=O)NCc3ccc(F)c(F)c3)s2)o1 [Compound 179, 4-(5-((3,4-difluorobenzyl)carbamoyl)thiophen-2-yl)-2-isobutyl-5-(5-methyl-1,3,4-oxadiazol-2-yl)-6-(2-(piperidin-1-yl)ethyl)nicotinamide] | > 1000 |
| Cc1nnc(-c2c(COc3ccc(F)cc3)nc(CC(C)C)c(C(N)=O)c2-c2ccc(C(=O)NCc3ccc(F)c(F)c3)s2)o1 [Compound 164] | 325 |
| Cc1nnc(-c2c(CCc3ccc(F)cc3)nc(CC(C)C)c(C(N)=O)c2-c2ccc(C(=O)NCc3ccc(F)c(F)c3)cc2)o1 [Compound 126, 4-(p-{[(3,4-difluorophenyl)methyl]carbamoyl}phenyl)-6-[2-(p-fluorophenyl)ethyl]-2-isobutyl-5-(5-methyl-1,3,4-oxadiazol-2-yl)nicotinamide] | 162 |
| Cc1nnc(-c2c(CCc3ccc(F)cc3)nc(CC(C)C)c(C(N)=O)c2N2CCC(C(=O)NCc3ccc(F)c(F)c3)C2)o1 (stereo not shown) [Compound 170, 4-(3-((3,4-difluorobenzyl)carbamoyl)pyrrolidin-1-yl)-6-(4-fluorophenethyl)-2-isobutyl-5-(5-methyl-1,3,4-oxadiazol-2-yl)nicotinamide] | 3720 |
| CC(C)Cc1nc(CCc2ccc(F)cc2)c(-c2nc(C(C)C)no2)c(-c2ccc(C(=O)NCc3ccc(F)c(F)c3)s2)c1C(N)=O [Compound 103, N-(3,4-difluorophenyl)methyl-5-{5-carbamoyl-2-[2-(p-fluorophenyl)ethyl]-6-isobutyl-3-(3-isopropyl-1,2,4-oxadiazol-5-yl)-4-pyridyl}-2-thenamide] | 314 |
| COc1cc(F)cc(CNC(=O)c2ccc(-c3c(C(N)=O)c(CC(C)C)nc(CCc4ccc(F)cc4)c3-c3nnc(C)o3)s2)c1 [Compound 116, N-[(3-fluoro-5-methoxyphenyl)methyl]-5-{5-carbamoyl-2-[2-(p-fluorophenyl)ethyl]-6-isobutyl-3-(5-methyl-1,3,4-oxadiazol-2-yl)-4-pyridyl}-2-thenamide] | 13.9 |
| Cc1cc(CNc2nccc3cc(-c4c(C(N)=O)c(CC(C)C)nc(CCc5ccc(F)cc5)c4-c4nnc(C)o4)sc23)ccn1 [Compound 156] | 1200 |
| CO[C@H]1CCCN(C(=O)c2ccc(-c3c(C(N)=O)c(CC(C)C)nc(CCc4ccc(F)cc4)c3-c3nnc(C)o3)s2)C1 [Compound 166] | > 1000 |
| Cc1ncoc1-c1c(CCc2ccc(F)cc2)nc(CC(C)C)c(C(N)=O)c1-c1ccc(C(=O)NCc2ccc(F)c(F)c2)s1 [Compound 153, N-(3,4-difluorophenyl)methyl-5-{5-carbamoyl-2-[2-(p-fluorophenyl)ethyl]-6-isobutyl-3-(4-methyl-1,3-oxazol-5-yl)-4-pyridyl}-2-thenamide] | 12 |
| CC(C)Cc1nc(CCc2ccc(F)cc2)c(-c2nnc(C(C)C)o2)c(-c2ccc(C(=O)NCc3ccc(F)c(F)c3)s2)c1C(N)=O [Compound 147, N-(3,4-difluorophenyl)methyl-5-{5-carbamoyl-2-[2-(p-fluorophenyl)ethyl]-6-isobutyl-3-(5-isopropyl-1,3,4-oxadiazol-2-yl)-4-pyridyl}-2-thenamide] | 2.3 |
| Cc1nnc(-c2c(CCC(F)F)nc(CC(C)C)c(C(N)=O)c2-c2ccc(C(=O)NCc3ccc(F)c(F)c3)s2)o1 [Compound 189, 4-(5-((3,4-difluorobenzyl)carbamoyl)thiophen-2-yl)-6-(3,3-difluoropropyl)-2-isobutyl-5-(5-methyl-1,3,4-oxadiazol-2-yl)nicotinamide] | > 1000 |
| Cc1nnc(-c2c(CCc3ccc(F)cc3)nc(CC(C)C)c(C(N)=O)c2-c2cc3ccnc(NCc4ccc(F)c(F)c4)c3o2)o1 [Compound 130, 4-(7-{[(3,4-difluorophenyl)methyl]amino}-1-oxa-6-aza-2-indenyl)-6-[2-(p-fluorophenyl)ethyl]-2-isobutyl-5-(5-methyl-1,3,4-oxadiazol-2-yl)nicotinamide] | 49 |
| Cc1nnc(-c2c(C34CC(C(F)(F)F)(C3)C4)nc(CC(C)C)c(C(N)=O)c2-c2ccc(C(=O)NCc3ccc(F)c(F)c3)s2)o1 [Compound 194, 4-(5-((3,4-difluorobenzyl)carbamoyl)thiophen-2-yl)-2-isobutyl-5-(5-methyl-1,3,4-oxadiazol-2-yl)-6-(3-(trifluoromethyl)bicyclo[1.1.1]pentan-1-yl)nicotinamide] | 3400 |
| Cc1cc(-c2c(CCc3ccc(F)cc3)nc(CC(C)C)c(C(N)=O)c2-c2ccc(C(=O)NCc3ccc(F)c(F)c3)s2)on1 [Compound 151, N-(3,4-difluorophenyl)methyl-5-{5-carbamoyl-2-[2-(p-fluorophenyl)ethyl]-6-isobutyl-3-(3-methyl-5-isoxazolyl)-4-pyridyl}-2-thenamide] | 134 |
| Cc1nnc(-c2c(COc3ccc(F)cc3)nc(CC(C)C)c(C(N)=O)c2-c2cc3ccnc(NCc4ccc(F)c(F)c4)c3s2)o1 [Compound 163] | 40 |
| Cc1nnc(-c2c(CCc3ccc(F)cc3)nc(CC(C)C)c(C(N)=O)c2-c2cc3cccc(Br)c3s2)o1 [Compound 129, 4-(7-bromo-1-benzothiophen-2-yl)-6-[2-(p-fluorophenyl)ethyl]-2-isobutyl-5-(5-methyl-1,3,4-oxadiazol-2-yl)nicotinamide] | 940 |
| Cc1cnc(-c2c(CCc3ccc(F)cc3)nc(CC(C)C)c(C(N)=O)c2-c2ccc(C(=O)NCc3ccc(F)c(F)c3)s2)o1 [Compound 150, N-(3,4-difluorophenyl)methyl-5-{5-carbamoyl-2-[2-(p-fluorophenyl)ethyl]-6-isobutyl-3-(5-methyl-1,3-oxazol-2-yl)-4-pyridyl}-2-thenamide] | 3.5 |
| Cc1nnc(-c2c(CCc3ccc(F)cc3)nc(CC(C)C)c(C(N)=O)c2-c2ccc(C(=O)N[C@H]3CCc4ncccc43)s2)o1 [Compound 124, (S)-4-(5-((6,7-dihydro-5H-cyclopenta[b]pyridin-5-yl)carbamoyl)thiophen-2-yl)-6-(4-fluorophenethyl)-2-isobutyl-5-(5-methyl-1,3,4-oxadiazol-2-yl)nicotinamide] | 35.8 |
| Cc1nnc(-c2c(CCc3ccc(F)cc3)nc(CC(C)C)c(C(N)=O)c2-c2ccc(C(=O)N[C@@H]3CCc4c(F)cccc43)s2)o1 [Compound 119, (R)-4-(5-((4-fluoro-2,3-dihydro-1H-inden-1-yl)carbamoyl)thiophen-2-yl)-6-(4-fluorophenethyl)-2-isobutyl-5-(5-methyl-1,3,4-oxadiazol-2-yl)nicotinamide] | 2.7 |
| CC(C)Cc1nc(CCc2ccc(F)cc2)c(-c2nnc(C(F)(F)F)o2)c(-c2ccc(C(=O)NCc3ccc(F)c(F)c3)s2)c1C(N)=O [Compound 148, N-(3,4-difluorophenyl)methyl-5-{5-carbamoyl-2-[2-(p-fluorophenyl)ethyl]-6-isobutyl-3-[5-(trifluoromethyl)-1,3,4-oxadiazol-2-yl]-4-pyridyl}-2-thenamide] | 208 |
